# PMC4613501, “Diversity in the structures and ligand-binding sites of nematode fatty acid and retinol-binding proteins revealed by Na-FAR-1 from Necator americanus” (Biochemical Journal, 2015)
# Key:
# Assay type in all cases: binding
# Na-FAR-1 [1] = biological target: T1, Na-FAR-1 (Necator americanus, UniProt W2SRJ3); test: fluorescence emission spectroscopy; details: delipidated protein
# T1 construct: gene NECAME_14208; His-tagged; expressed in E. coli BL21 (lambda DE3), selenomethionine form in B834
# T1 sequence (W2SRJ3 entry or part of it): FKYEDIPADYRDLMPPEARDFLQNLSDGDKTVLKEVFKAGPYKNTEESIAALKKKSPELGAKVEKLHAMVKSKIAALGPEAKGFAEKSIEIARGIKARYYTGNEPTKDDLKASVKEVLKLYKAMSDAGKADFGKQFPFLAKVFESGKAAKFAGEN
# Na-FAR-1 [2] = biological target: T1, Na-FAR-1; test: NMR titration ([…] HSQC chemical shift perturbation); details: apo protein 0.4 mM, sodium oleate, 20 mM sodium phosphate pH 7.20, 311 K; multiple sites, no fitted constant
# Na-FAR-1 [3] = biological target: T1, Na-FAR-1; test: X-ray crystallography; details: selenomethionine-labelled protein; co-purified from E. coli, palmitate chosen as fit to a C16 fatty acid density; internal cavity around Lys96
compound,measurement,setting,value
CN(C)c1cccc2c(S(=O)(=O)NCCCCCCCCCCC(=O)O)cccc12 [DAUDA],fluorescence emission spectroscopy,"Na-FAR-1 [1]; PBS, 1 μM DAUDA, 1 μM protein, excitation 345 nm",Na-FAR-1 bound the fluorescent FA analogue DAUDA and the naturally fluorescent lipid retinol
CCCCCCCC/C=C\CCCCCCCC(=O)O [oleic acid],NMR titration (15N HSQC chemical shift perturbation),Na-FAR-1 [2],the protein binds up to at least four oleate molecules
CCCCCCCCCCCCCCCC(=O)O [palmitate],X-ray crystallography,Na-FAR-1 [3],"Since the predominant FA found in E. coli lipids is palmitate, we fitted this"
CC1=C(/C=C/C(C)=C/C=C/C(C)=C/CO)C(C)(C)CCC1 [retinol],fluorescence emission spectroscopy,"Na-FAR-1 [1]; retinol in ethanol, 1.5 μM protein, excitation 350 nm, isomer not stated",Na-FAR-1 bound the fluorescent FA analogue DAUDA and the naturally fluorescent lipid retinol
